Experimental data as given in patent US7772255B2, “Method of treating tumors with azaxanthones” (Supratek Pharma, Inc., priority 2005, dated 2010).
Structures can show the parent of a compound that is named as a salt. Where two headings read alike, the source gives them in different places.

Legend:
[1] = Bioavailability and pharmacokinetics in normal rats; format: in vivo, rat; conditions: for clearance / Vd / AUC / Cmax / MRT / half-life / bioavailability: female, CD; for clearance / Vd / AUC / Cmax / MRT / half-life / CL / Vss: rat plasma; for Vd: read-out: Vss; for AUC / Cmax / MRT / half-life / bioavailability: rat, plasma; for bioavailability: read-out: Bioavailability for oral administration; for CL / Vss: oral
Protocol: Female CD rats (from 200 to 250 g body weight) were obtained from Charles River Canada Inc. (St. Constant, Quebec, Canada). The animals were kept 4 per cage with an air filter cover under light (12 h light/dark cycle, light on at 06 h 00) and temperature (22°±1° C.)-controlled environment. All manipulations with the animals were performed under a sterilized laminar hood. The animals had ad libitum access to Purina rat chow (Pro Lab PMH 4018, Trademark of Agway, Syracuse, N.Y.) and water. The animal studies were conducted according to the “Guidelines for Care and Use of Experimental Animals”.
For Amlexanox salt the dosing solution was prepared by dissolving 20 mg of Amlexanox in equi-molar NaOH solution and then, equilibrated with 1M Tris-HCl pH 7.4. For Amlexanox acid the dosing solution was prepared by simple suspending 20 mg of Amlexanox in 1% methyl cellulose in water.
Amlexanox dosing solution (20 mg/mL) was administered i.v. and orally in normal rats (four animals in each group) at doses of 10, 25, 50, 100 and 200 mg/kg. After various time intervals (30 min and 1, 3, 6, 10 and 24 h) post-injection, blood was collected from eye vein of animals. Then, blood was immediately centrifuged, and plasma was separated. The plasma samples were immediately frozen in dry ice and stored at −80° C. until further use.
(§1) The defrosted plasma samples were centrifuged at 2000 g for 5 min, and aliquots (10 μL) of each sample were transferred into 1.5-ml plastic tubes. The samples were diluted with phosphate buttered saline (PBS) in various amounts of times and aliquots of 100 μL were transferred into the other 1.5-ml plastic tubes. The samples were extracted with 1 mL of 100% acetonitrile for 10 min on 180° rotator. Then, the tubes were centrifuged at 10,000 g for 15 min.
(§2) The supernatant was separated to glass tubes and evaporated in a stream of nitrogen at […]. until dryness. The dried samples were kept at −20° C. until HPLC analysis. The samples were reconstituted in 100 μL of mobile phase analyze before analyze by HPLC.
(§3) The samples were analysed by HPLC using 250×4.6 mm, Phenomenex C18 Luna, 5 micron column, 1 mL/min flow rate of mobile phase 73% of 25 mM sodium phosphate pH 7.5 and 27% acetonitrile; fluorescent deyection λexcitation=348 nm, λemission=404 nm.
The concentrations of Amlexanox in samples were determined by comparison with calibration curve obtained from spiked rat plasma samples using the same analytical method. The areas under the curves (AUC) of Amlexanox were calculated by trapezoidal method.

[2] = Pharmacokinetics in normal dogs; format: in vivo, dog (Canis familiaris); conditions: 10 mg/kg
Protocol: Experiments were performed in 6 male Beagle dogs (Canis familiaris) (from 8 to 14 kg body weight, 2 to 3 years of age). The animals had ad libitum access to tap water. Commercial dog chow was provided to the animals once daily during a 2-hour feeding period.
Dosing solution of amlexanox salt was prepared by simple dissolving of amlexanox salt in water. Dosing solution of amlexanox acid was prepared suspending of amlexanox acid in 0.5% methyl cellulose.
Amlexanox acid and Na salt forms were orally administered by gavage in dogs (three animals in each group) at doses of 10 mg/kg. Amlexanox tablets L and CP, prepared according to Example 13, were administered to dogs orally at doses of 10 mg/kg. After various time intervals (pre-dose, 15, 30 min and 1, 2, 3, 6, 8, 12, 24 and 48 h) post-injection, blood was collected from the jugular vein of animals. Then, blood was immediately centrifuged, and plasma was separated. The plasma samples were immediately frozen in dry ice and stored at −80° C. until further use.
as §1, with “PBS” for “phosphate buttered saline (PBS)”
as §2, §3
The concentrations of amlexanox in samples were determined by comparison with calibration curve obtained from spiked dog plasma samples using the same analytical method. The areas under the curves (AUC) of amlexanox were calculated by trapezoidal method.

[3] = dog plasma, oral, listed as Amlexanox Na Salt, sodium salt
[4] = po, 10 mg/kg, acid suspended in 1% methyl cellulose
[5] = po, 25 mg/kg, acid suspended in 1% methyl cellulose
[6] = po, 50 mg/kg, acid suspended in 1% methyl cellulose
[7] = po, 100 mg/kg, acid suspended in 1% methyl cellulose
[8] = po, 200 mg/kg, acid suspended in 1% methyl cellulose
[9] = acid suspended in 1% methyl cellulose, 10 mg/kg
[10] = acid suspended in 1% methyl cellulose, 25 mg/kg
[11] = acid suspended in 1% methyl cellulose, 50 mg/kg
[12] = acid suspended in 1% methyl cellulose, 100 mg/kg
[13] = acid suspended in 1% methyl cellulose, 200 mg/kg
[14] = dog plasma, oral, listed as Amlexanox Acid

CC(C)c1ccc2oc3nc(N)c(C(=O)O)cc3c(=O)c2c1 [Amlexanox (salt), 2-amino-7-isopropyl-1-azaxanthone-3-carboxylic acid sodium salt]
clearance ([1]; iv, I.V., 10 mg/kg): 50 mL/min/kg | Vd ([1]; iv, I.V., 10 mg/kg): 2.26 L/kg | clearance ([1]; iv, I.V., 25 mg/kg): 8.83 mL/min/kg | Vd ([1]; iv, I.V., 25 mg/kg): 0.99 L/kg | clearance ([1]; iv, I.V., 50 mg/kg): 1.67 mL/min/kg | Vd ([1]; iv, I.V., 50 mg/kg): 0.1 L/kg | clearance ([1]; iv, I.V., 100 mg/kg): 2.17 mL/min/kg | Vd ([1]; iv, I.V., 100 mg/kg): 0.14 L/kg | clearance ([1]; iv, I.V., 200 mg/kg): 4.5 mL/min/kg | Vd ([1]; iv, I.V., 200 mg/kg): 0.51 L/kg | AUC ([1]; iv, 10 mg/kg, I.V.): 3300 ng·h/mL | Cmax ([1]; iv, 10 mg/kg, I.V.): 4500 ng/mL | MRT ([1]; iv, 10 mg/kg, I.V.): 0.75 h | half-life ([1]; iv, 10 mg/kg, I.V.): 0.52 h | AUC ([1]; iv, 25 mg/kg, I.V.): 47000 ng·h/mL | Cmax ([1]; iv, 25 mg/kg, I.V.): 33400 ng/mL | MRT ([1]; iv, 25 mg/kg, I.V.): 1.87 h | half-life ([1]; iv, 25 mg/kg, I.V.): 1.29 h | AUC ([1]; iv, 50 mg/kg, I.V.): 217000 ng·h/mL | Cmax ([1]; iv, 50 mg/kg, I.V.): 165000 ng/mL | MRT ([1]; iv, 50 mg/kg, I.V.): 1.05 h | half-life ([1]; iv, 50 mg/kg, I.V.): 0.69 h | AUC ([1]; iv, 100 mg/kg, I.V.): 398000 ng·h/mL | Cmax ([1]; iv, 100 mg/kg, I.V.): 216000 ng/mL | MRT ([1]; iv, 100 mg/kg, I.V.): 1.14 h | half-life ([1]; iv, 100 mg/kg, I.V.): 0.75 h | AUC ([1]; iv, 200 mg/kg, I.V.): 739000 ng·h/mL | Cmax ([1]; iv, 200 mg/kg, I.V.): 466000 ng/mL | MRT ([1]; iv, 200 mg/kg, I.V.): 1.89 h | half-life ([1]; iv, 200 mg/kg, I.V.): 1.31 h | AUC ([1]; po, 10 mg/kg, salt solution): 1040 ng·h/mL | Cmax ([1]; po, 10 mg/kg, salt solution): 190 ng/mL | MRT ([1]; po, 10 mg/kg, salt solution): 8.29 h | half-life ([1]; po, 10 mg/kg, salt solution): 5.76 h | bioavailability ([1]; po, 10 mg/kg, salt, 10 mg/kg): 31.2% | AUC ([1]; po, 25 mg/kg, salt solution): 2200 ng·h/mL | Cmax ([1]; po, 25 mg/kg, salt solution): 550 ng/mL | MRT ([1]; po, 25 mg/kg, salt solution): 7.71 h | half-life ([1]; po, 25 mg/kg, salt solution): 5.33 h | bioavailability ([1]; po, 25 mg/kg, salt, 25 mg/kg): 4.7% | AUC ([1]; po, 50 mg/kg, salt solution): 4470 ng·h/mL | Cmax ([1]; po, 50 mg/kg, salt solution): 1590 ng/mL | MRT ([1]; po, 50 mg/kg, salt solution): 7.28 h | half-life ([1]; po, 50 mg/kg, salt solution): 5.04 h | bioavailability ([1]; po, 50 mg/kg, salt, 50 mg/kg): 2.1% | AUC ([1]; po, 100 mg/kg, salt solution): 41200 ng·h/mL | Cmax ([1]; po, 100 mg/kg, salt solution): 19800 ng/mL | MRT ([1]; po, 100 mg/kg, salt solution): 2.05 h | half-life ([1]; po, 100 mg/kg, salt solution): 1.42 h | bioavailability ([1]; po, 100 mg/kg, salt, 100 mg/kg): 10.3% | AUC ([1]; po, 200 mg/kg, salt solution): 200000 ng·h/mL | Cmax ([1]; po, 200 mg/kg, salt solution): 95200 ng/mL | MRT ([1]; po, 200 mg/kg, salt solution): 1.77 h | half-life ([1]; po, 200 mg/kg, salt solution): 1.23 h | bioavailability ([1]; po, 200 mg/kg, salt, 200 mg/kg): 27.1% | CL ([1]; salt solution, 10 mg/kg): 160 mL/min/kg | Vss ([1]; salt solution, 10 mg/kg): 79.8 L/kg | CL ([1]; salt solution, 25 mg/kg): 190 mL/min/kg | Vss ([1]; salt solution, 25 mg/kg): 87.7 L/kg | CL ([1]; salt solution, 50 mg/kg): 187 mL/min/kg | Vss ([1]; salt solution, 50 mg/kg): 81.4 L/kg | CL ([1]; salt solution, 100 mg/kg): 40.5 mL/min/kg | Vss ([1]; salt solution, 100 mg/kg): 4.99 L/kg | CL ([1]; salt solution, 200 mg/kg): 8.3 mL/min/kg | Vss ([1]; salt solution, 200 mg/kg): 0.89 L/kg | AUC [2, 3]: 29000 ng·h/mL | CL [2, 3]: 5 mL/min/kg | Cmax [2, 3]: 10700 ng/mL | MRT [2, 3]: 2.5 h | Vss [2, 3]: 0.9 L/kg | t1/2 [2, 3]: 1.8 h

CC(C)c1ccc2oc3nc(N)c(C(=O)O)cc3c(=O)c2c1 [Amlexanox, 2-amino-7-isopropyl-1-azaxanthone-3-carboxylic acid]
AUC [1, 4]: 1050 ng·h/mL | Cmax [1, 4]: 370 ng/mL | MRT [1, 4]: 6.28 h | half-life [1, 4]: 4.36 h | bioavailability ([1]; po, 10 mg/kg, acid, 10 mg/kg): 31.5% | AUC [1, 5]: 1380 ng·h/mL | Cmax [1, 5]: 260 ng/mL | MRT [1, 5]: 11.3 h | half-life [1, 5]: 7.81 h | bioavailability ([1]; po, 25 mg/kg, acid, 25 mg/kg): 2.9% | AUC [1, 6]: 2380 ng·h/mL | Cmax [1, 6]: 580 ng/mL | MRT [1, 6]: 8.43 h | half-life [1, 6]: 5.84 h | bioavailability ([1]; po, 50 mg/kg, acid, 50 mg/kg): 1.1% | AUC [1, 7]: 8830 ng·h/mL | Cmax [1, 7]: 1170 ng/mL | MRT [1, 7]: 8.7 h | half-life [1, 7]: 6.04 h | bioavailability ([1]; po, 100 mg/kg, acid, 100 mg/kg): 2.2% | AUC [1, 8]: 18600 ng·h/mL | Cmax [1, 8]: 7000 ng/mL | MRT [1, 8]: 5.32 h | half-life [1, 8]: 3.68 h | bioavailability ([1]; po, 200 mg/kg, acid, 200 mg/kg): 2.5% | CL [1, 9]: 158 mL/min/kg | Vss [1, 9]: 59.8 L/kg | CL [1, 10]: 301.7 mL/min/kg | Vss [1, 10]: 204 L/kg | CL [1, 11]: 350.2 mL/min/kg | Vss [1, 11]: 177.2 L/kg | CL [1, 12]: 188.3 mL/min/kg | Vss [1, 12]: 98.5 L/kg | CL [1, 13]: 89.5 mL/min/kg | Vss [1, 13]: 28.5 L/kg | AUC [2, 14]: 7600 ng·h/mL | CL [2, 14]: 21.7 mL/min/kg | Cmax [2, 14]: 3400 ng/mL | Vss [2, 14]: 4.3 L/kg | half-life ([2]; male, Beagle, dog, plasma, po): 2.3 h | MRT ([2]; male, Beagle, dog, plasma, po, read-out: MRT): 3.3 h
